Assay [1] has as its system HOB cells. As to the kind of experiment: Cell adhesion assay (cell attachment and cell spreading), HOB cells. In kind it is cell-based, human. The procedure:
To evaluate cell attachment and cell spreading exponentially growing cells were detached from substratum by trypsinisation (0.25% (v/v) trypsin in 5 mM EDTA), collected into medium containing a ˜7% (V/V) final concentration of FCS, washed twice with medium without serum and then plated (2×10^4cells/well) onto FN-coated 96-well plates with and without further immobilisation of tTG. After a maximum of 20-minute incubation (to minimise the effect of any endogenous secreted proteins) at 37° C. in a 5% CO2 atmosphere, cells were fixed in 3.7% (w/v) paraformaldehyde in PBS pH 7.4, permeabilised in 0.1% (v/v) Triton X-100 and stained with May Grunwald and Giemsa stain (Jones et al 1997, Verderio et al. 2000). In some cases cells were pre-treated for 15 hours with 1 mM cycloheximide before plating to rule out any effects of endogenous secreted adhesion molecules. Digital images of three non-overlapping fields covering the central portion of each well was captured using a video digital camera (Olympus DP10) and examined using the Image Analysis programme Scion Image (National Institute of Health, USA). A total of at least nine images of separate fields per sample were examined for a total of at least 900 cells in the FN control. The number of cell particles in each field was measured by thresholding and particle analysis setting a minimum particle size of 50 pixels. Spread cells were analysed and quantified by “density slicing” and particle analysis.
Adhesion of cells to FN was decreased by pre-incubation with RGD synthetic peptide (50 μg/ml, ˜75 ∝M, 100 μg/ml ˜150 μM, or 200 μg/ml ˜300 μM) or function blocking anti-integrin antibodies 40 μg/ml anti-β1 integrin (JB1A), 30 μg/ml anti-α5 integrin (P1D6). Detached cells (as described above) were pre-incubated in suspension (2×10^5cells/ml) in serum-free medium containing either RGD peptide or anti-integrins antibodies at 37° C. for 10 minutes in 5% CO2 atmosphere, and then seeded in the presence of the peptides.

A further assay deals with Swiss 3T3 fibroblasts. The assay can be described thus: Cell adhesion assay (cell attachment and cell spreading), Swiss 3T3 fibroblasts. Conditions: 100 μg/ml RGD peptide. In kind it is cell-based, mouse. The procedure: To evaluate cell attachment and cell spreading exponentially growing cells were detached from substratum by trypsinisation (0.25% (v/v) trypsin in 5 mM EDTA), collected into medium containing a ˜7% (V/V) final concentration of FCS, washed twice with medium without serum and then plated (2×10^4cells/well) onto FN-coated 96-well plates with and without further immobilisation of tTG. After a maximum of 20-minute incubation (to minimise the effect of any endogenous secreted proteins) at 37° C. in a 5% CO2 atmosphere, cells were fixed in 3.7% (w/v) paraformaldehyde in PBS pH 7.4, permeabilised in 0.1% (v/v) Triton X-100 and stained with May Grunwald and Giemsa stain (Jones et al 1997, Verderio et al. 2000). In some cases cells were pre-treated for 15 hours with 1 mM cycloheximide before plating to rule out any effects of endogenous secreted adhesion molecules. Digital images of three non-overlapping fields covering the central portion of each well was captured using a video digital camera (Olympus DP10) and examined using the Image Analysis programme Scion Image (National Institute of Health, USA). […] The number of cell particles in each field was measured by thresholding and particle analysis setting a minimum particle size of 50 pixels. Spread cells were analysed and quantified by “density slicing” and particle analysis. […]

Assay [2] has as its system HOB cells. The class given is cell-based, human. Conditions: FN+RGD.
A further assay relates to FAK. As to the kind of experiment: FAK tyrosine phosphorylation (western blot, phospho(Tyr397)-FAK). The class given is cell-based, human. Conditions: HOB; RGD peptide (100 μg/ml). The procedure:
A cell suspension of 2×10^5 cells/ml was seeded in 9.6 cm^2-wells (6×10^5 cells/well) pre-coated with FN, tTG-FN or heat-inactivated 3% BSA (w/v) in PBS pH 7.4. After 30-minute incubation at 37° C. in a 5% CO2 atmosphere, the supernatant medium was removed, and non-adhered cells collected by spinning at 270 g for 5 minutes and then lysed in reducing Laemmli sample buffer at 95° C. for 5 minutes. The layer of adhered cells was scraped and similarly lysed (200 μl/well). The lysates of adhered and non-adherent cells were pooled together, fractionated (¼ aliquot) on 8% SDS-PAGE and then western blotted. Blots were incubated with a polyclonal rabbit anti-human phospho(Tyr 397)-FAK (1/2000), for ˜15 hours at +4° C. followed by anti-rabbit IgG peroxidase-conjugate (1/2000) for 2 hours at 21° C. Bands were detected by chemi-luminescence (Amersham), following manufacturer instructions. For re-probing with a control antibody, blots were treated with stripping buffer [50 mM Tris.HCl pH 6.7, 100 mM βME, 2% SDS (w/v)] for 30 minutes at 50° C. and then incubated with a monoclonal anti-tubulin antibody (1/2000), followed by peroxidase-conjugate anti-mouse IgGs/(1/1000).
(In general: A western blot detects proteins with antibodies after separation by electrophoresis.)

For assay [3], the system named is tTG-null mouse dermal fibroblasts (MDF-TG−/−). The assay can be described thus: Anoikis quantification by TUNEL (flow cytometry and in situ microscopy). In kind it is cell-based. Conditions: RGD peptide, ~15-hour, flow cytometry. How it is done: (§1) For fluorochrome labelling of DNA strand breaks, 6×10^5 cells were seeded in duplicate in 9.6 cm^2-wells pre-coated with FN or tTG-FN in the presence or absence of RGD peptide. After 15-hour incubation at 37° C. in a 5% CO2 atmosphere, all cells (adhered and non-adhered) were collected, washed twice in PBS pH 7.4, resuspended at the final concentration of 1.2×10^7 cells/ml and fixed in suspension by addition of one volume of 4% (w/v) PFM in PBS, pH 7.4 for 1 hour at room temperature. […] The fluorescence intensity measured by flow cytometry using a Beckman Coulter EPICS XL. Cells were collected and data stored using the SYSTEM II software and analysed using the WinMDI2.8 software. DNA fragmentation was also detected by in situ analysis of nuclei following TUNEL using a confocal fluorescent microscope (Leica). […] For quantification, the Leica LCS software was used to acquire three random images per well for a total of 9 images per experimental sample using a fixed protocol (with constant PMT and section-depth setting). Data are expressed as mean number of apoptotic cells per well. […] Data are expressed as absorbance values at 492 nm after subtraction of values at […] given by the unmetabolised salt.
Background: In flow cytometry, cells or beads pass a laser one at a time.

Assay [4] has the same test system. The assay can be described thus: Cell viability (XTT) assay. The class given is cell-based. Conditions: RGD peptide ~15 hours. The procedure: as §1
A general note: Tetrazolium dyes change colour on reduction, which living cells bring about.

Assay [5] relates to BRIN-BD11 (clonal β-cells). As to the kind of experiment: Cell attachment and spreading of BRIN-BD11 cells. In kind it is cell-based, rat. Conditions: excess RGD peptide. The procedure:
A novel insulin-secreting cell line (BRIN-BD11), which was established after electrofusion of RINm5F cells with New England Deaconess Hospital rat pancreatic islet cells, was grown confluent in RPMI 1640 media, supplemented with 10% FCS, 200 u/ml Penicillin, 200 ug/ml Streptomycin and L-Glutamine at 2 mM. The wells of microtitre plates were coated with FN (5 μg/ml) overnight at 4° C. The assigned wells were washed once with 50 mM Tris-HCl, pH 7.4 and then incubated with 20 μg/ml tTG solution (dissolved in PBS containing 2 mM EDTA pH 7.4) for 1 hour at 37° C. Meanwhile, exponentially growing cells were trypsinised and collected into medium containing approximately 7% (v/v) foetal calf serum. After a five-minute centrifugation at 300×g the cell pellet was washed twice in serum free medium to remove the traces of serum proteins. […] The cell attachment and spreading were quantified using the Scion image analysis programme, which is developed at the National Institute of Health (Washington DC, USA). The number of cells per image was assessed through threshold and particle analysis settings with a minimum particle size of 50 pixels. […] These were quantified by density slicing and particle analysis settings. […]

Where no end group is shown, it is not given here.

This note sets out measurements from US20070077607A1, “Novel screening method” (priority 2003, published 2007).

With GRGDTP [RGD peptide, GRGDTP], the “cell spreading on FN” value was 10-50 % of control value with HOB cells [1] (100 μg/ml RGD peptide) and 30-40 % of controls in the assay on Swiss 3T3 fibroblasts. The “cell attachment on FN” value in the assay on HOB cells [1] (50 and 100 μg/ml RGD peptides) is 30-50 % of control values on FN; in the assay with Swiss 3T3 fibroblasts, 30-40 % of controls. Further, the “inhibition of cell attachment on the 70 kd fragment” value in the assay on HOB cells [1] (RGD peptide (100 μg/ml)) is reported as about 40%. In the assay on HOB cells [1] (RGD peptide (100 μg/ml)), the “inhibition of cell spreading on the 70 kd fragment” value is about 40%. The “actin stress fibre organisation on FN” value in the assay with HOB cells [2] is recorded as “actin was not organised into stress fibres”. Moreover, the “tyrosine phosphorylation of FAK on FN” value with FAK was ~25 % of level in control cells on. Moreover, in assay [3], the “apoptotic cells among total fibroblasts grown on FN” value is on record as about 24%. Moreover, in assay [4], the “decrease of cell viability on FN versus control RAD peptide” value is listed as “around 20%”. For the same substance, the “cell attachment and spreading on FN” value in assay [5] is “decreased”.
